By Ki is commonly meant a measure of affinity in units of concentration, obtained from inhibition or displacement. Low values mean higher affinity, high ones lower affinity.

For this assay, the target named is T1, glucocorticoid receptor (Homo sapiens, UniProt P04150).
T1 construct: endogenous in cells; ATCC cat
T1 sequence (P04150 1-777): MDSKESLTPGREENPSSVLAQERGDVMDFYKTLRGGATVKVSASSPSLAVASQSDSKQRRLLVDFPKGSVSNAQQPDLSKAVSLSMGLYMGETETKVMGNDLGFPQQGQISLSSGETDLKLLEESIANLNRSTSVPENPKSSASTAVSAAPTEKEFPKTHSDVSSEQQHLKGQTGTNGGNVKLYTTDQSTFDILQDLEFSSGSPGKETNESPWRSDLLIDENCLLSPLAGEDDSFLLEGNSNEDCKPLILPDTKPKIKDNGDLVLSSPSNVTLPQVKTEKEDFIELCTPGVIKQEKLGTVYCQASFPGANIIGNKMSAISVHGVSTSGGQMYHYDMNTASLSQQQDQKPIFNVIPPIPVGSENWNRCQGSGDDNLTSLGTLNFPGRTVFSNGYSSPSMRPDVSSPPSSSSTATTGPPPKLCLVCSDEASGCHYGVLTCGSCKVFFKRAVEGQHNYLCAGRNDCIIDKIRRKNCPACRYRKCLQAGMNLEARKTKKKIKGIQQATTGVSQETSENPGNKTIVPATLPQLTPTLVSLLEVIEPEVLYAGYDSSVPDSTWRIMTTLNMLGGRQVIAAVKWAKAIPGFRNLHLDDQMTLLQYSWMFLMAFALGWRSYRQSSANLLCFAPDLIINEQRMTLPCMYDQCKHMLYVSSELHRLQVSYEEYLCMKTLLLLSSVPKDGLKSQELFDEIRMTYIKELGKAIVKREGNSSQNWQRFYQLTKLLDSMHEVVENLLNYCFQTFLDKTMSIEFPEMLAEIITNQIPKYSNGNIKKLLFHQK
Nature of the assay: Hep G2 TAT Ki: inhibition of dexamethasone-induced TAT in HepG2 cells (96 well). It counts as cell-based. Particulars: challenge of 100 nM dexamethasone, IC50 converted to Ki by Cheng and Prusoff equation. A digest of the protocol:
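Cells lysed 15 min at 4 °C; TAT enzyme reaction 2 h at 37 °C, stopped with KOH, 30 min further at 37 °C. Inhibition fitted to 4-parameter logistic.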
On to `Cc1cc2c(cnn2-c2ccc(F)cc2)cc1C1CN(S(=O)(=O)c2nncn2C)CCN1CC(C)C` (single isomer, unassigned) [Example 94, 1-(4-fluorophenyl)-5-(1-isobutyl-4-((4-methyl-4H-1,2,4-triazol-3-yl)sulfonyl)piperazin-2-yl)-6-methyl-1H-indazole], for which the Ki was determined as 74 nM.
`Cc1cc2c(cnn2-c2ccc(F)cc2)cc1C1CN(S(=O)(=O)c2cnn(CC(F)(F)F)n2)CCN1CC(C)C` (single isomer, unassigned) [Example 95, 1-(4-fluorophenyl)-5-(1-isobutyl-4-((2-(2,2,2-trifluoroethyl)-2H-1,2,3-triazol-4-yl)sulfonyl)piperazin-2-yl)-6-methyl-1H-indazole] displayed a Ki of 100 nM.
Molecule `Cc1cc2c(cnn2-c2ccc(F)cc2)cc1C1CN(S(=O)(=O)c2cn(CC(F)F)nc2C)CCN1CC(C)C` (single isomer, unassigned) [Example 96, 5-(4-((1-(2,2-difluoroethyl)-3-methyl-1H-pyrazol-4-yl)sulfonyl)-1-isobutylpiperazin-2-yl)-1-(4-fluorophenyl)-6-methyl-1H-indazole] displayed a Ki of 43 nM.
For `Cc1cc2c(cnn2-c2ccc(F)cc2)cc1C1CN(S(=O)(=O)c2cccnc2)CCN1CC(C)C` (single isomer, unassigned) [Example 97, 1-(4-fluorophenyl)-5-(1-isobutyl-4-(pyridin-3-ylsulfonyl)piperazin-2-yl)-6-methyl-1H-indazole], the affinity corresponds to a Ki of 23 nM.
Take `Cc1cc2c(cnn2-c2ccc(F)cc2)cc1C1CN(S(=O)(=O)c2ccc(C#N)cc2)CCN1CC(C)C` (single isomer, unassigned) [Example 98, 4-((3-(1-(4-fluorophenyl)-6-methyl-1H-indazol-5-yl)-4-isobutylpiperazin-1-yl)sulfonyl)benzonitrile]: the Ki was 25 nM.
In the case of `Cc1nc(S(=O)(=O)N2CCN(CC(C)C)C(c3cc4cnn(-c5ccc(F)cc5)c4cc3C)C2)cs1` (single isomer, unassigned) [Example 99, 4-((3-(1-(4-fluorophenyl)-6-methyl-1H-indazol-5-yl)-4-isobutylpiperazin-1-yl)sulfonyl)-2-methylthiazole] it was 19 nM; in that of `Cc1cc2c(cnn2-c2ccc(F)cc2)cc1C1CN(S(=O)(=O)c2c(C)nnn2C)CCN1CC(C)C` (single isomer, unassigned) [Example 100, 5-(4-((1,4-dimethyl-1H-1,2,3-triazol-5-yl)sulfonyl)-1-isobutylpiperazin-2-yl)-1-(4-fluorophenyl)-6-methyl-1H-indazole], 42 nM; in that of `Cc1cc2c(cnn2-c2ccc(F)cc2)cc1C1CN(S(=O)(=O)c2cn(C)nn2)CCN1CC(C)C` (single isomer, unassigned) [Example 101, 1-(4-fluorophenyl)-5-(1-isobutyl-4-((1-methyl-1H-1,2,3-triazol-4-yl)sulfonyl)piperazin-2-yl)-6-methyl-1H-indazole], 28 nM.
For the molecule `Cc1cc2c(cnn2-c2ccc(F)cc2)cc1C1CN(S(=O)(=O)c2ccc(C(F)(F)F)nc2)CCN1CC(C)C` (single isomer, unassigned) [Example 102, 1-(4-fluorophenyl)-5-(1-isobutyl-4-((6-(trifluoromethyl)pyridin-3-yl)sulfonyl)piperazin-2-yl)-6-methyl-1H-indazole], the Ki was determined as 39 nM.
In the case of `COc1ccc(S(=O)(=O)N2CCN(CC(C)C)C(c3cc4cnn(-c5ccc(F)cc5)c4cc3C)C2)cn1` (single isomer, unassigned) [Example 103, 1-(4-fluorophenyl)-5-(1-isobutyl-4-((6-methoxypyridin-3-yl)sulfonyl)piperazin-2-yl)-6-methyl-1H-indazole] it was 35 nM.
The molecule `Cc1ccc(S(=O)(=O)N2CCN(CC(C)C)C(c3cc4cnn(-c5ccc(F)cc5)c4cc3C)C2)cn1` (single isomer, unassigned) [Example 104, 1-(4-fluorophenyl)-5-(1-isobutyl-4-((6-methylpyridin-3-yl)sulfonyl)piperazin-2-yl)-6-methyl-1H-indazole] displayed an inhibition constant (Ki) of 19 nM.
Molecule `Cc1cc2c(cnn2-c2ccc(F)cc2)cc1C1CN(S(=O)(=O)c2cccnc2C(F)(F)F)CCN1CC(C)C` (single isomer, unassigned) [Example 105, 1-(4-fluorophenyl)-5-(1-isobutyl-4-((2-(trifluoromethyl)pyridin-3-yl)sulfonyl)piperazin-2-yl)-6-methyl-1H-indazole] registered a Ki of 46 nM.
Regarding `Cc1cc2c(cnn2-c2ccc(F)cc2)cc1C1CN(S(=O)(=O)CC(F)(F)F)CCN1CC(C)C` (single isomer, unassigned) [Example 106, 1-(4-fluorophenyl)-5-(1-isobutyl-4-((2,2,2-trifluoroethyl)sulfonyl)piperazin-2-yl)-6-methyl-1H-indazole], the inhibition constant (Ki) was determined as 33 nM.
In the case of `Cc1cc2c(cnn2-c2ccc(F)cc2)cc1C1CN(S(=O)(=O)c2cccnc2C#N)CCN1CC(C)C` (single isomer, unassigned) [Example 107, 3-((3-(1-(4-fluorophenyl)-6-methyl-1H-indazol-5-yl)-4-isobutylpiperazin-1-yl)sulfonyl)picolinonitrile] it was 22 nM; in that of `Cc1cc2c(cnn2-c2ccc(F)cc2)cc1C1CN(S(=O)(=O)CCOC(C)C)CCN1CC(C)C` (single isomer, unassigned) [Example 108, 1-(4-fluorophenyl)-5-(1-isobutyl-4-((2-isopropoxyethyl)sulfonyl)piperazin-2-yl)-6-methyl-1H-indazole], 44 nM.
In the case of `Cc1cc2c(cnn2-c2ccc(F)cc2)cc1C1CN(S(=O)(=O)c2nccs2)CCN1CC(C)C` (single isomer, unassigned) [Example 109, 2-((3-(1-(4-fluorophenyl)-6-methyl-1H-indazol-5-yl)-4-isobutylpiperazin-1-yl)sulfonyl)thiazole], the Ki stood at 12 nM.
The molecule `Cc1cc2c(cnn2-c2ccc(F)cc2)cc1C1CN(S(=O)(=O)c2cnn(CC(F)(F)F)c2)CCN1CC(C)C` (single isomer, unassigned) [Example 110, 1-(4-fluorophenyl)-5-(1-isobutyl-4-((1-(2,2,2-trifluoroethyl)-1H-pyrazol-4-yl)sulfonyl)piperazin-2-yl)-6-methyl-1H-indazole] had a Ki of 27 nM.
`Cc1cc2c(cnn2-c2ccc(F)cc2)cc1C1CN(S(=O)(=O)C2COC2)CCN1CC(C)C` (single isomer, unassigned) [Example 111, 1-(4-fluorophenyl)-5-(1-isobutyl-4-(oxetan-3-ylsulfonyl)piperazin-2-yl)-6-methyl-1H-indazole] gave a Ki of 65 nM.
`Cc1cc2c(cnn2-c2ccc(F)cc2)cc1C1CN(S(=O)(=O)c2cnccc2C)CCN1CC(C)C` (single isomer, unassigned) [Example 112, 1-(4-fluorophenyl)-5-(1-isobutyl-4-((4-methylpyridin-3-yl)sulfonyl)piperazin-2-yl)-6-methyl-1H-indazole]: the affinity corresponds to a Ki of 36 nM.
The molecule `Cc1cc2c(cnn2-c2ccc(F)cc2)cc1C1CN(S(=O)(=O)Cc2ccc(C#N)cc2)CCN1CC(C)C` (single isomer, unassigned) [Example 114, 4-(((3-(1-(4-fluorophenyl)-6-methyl-1H-indazol-5-yl)-4-isobutylpiperazin-1-yl)sulfonyl)methyl)benzonitrile] registered a Ki of 55 nM.
Regarding `Cc1cc2c(cnn2-c2ccc(F)cc2)cc1C1CN(S(=O)(=O)c2ccccn2)CCN1CC(C)C` (single isomer, unassigned) [Example 115, 1-(4-fluorophenyl)-5-(1-isobutyl-4-(pyridin-2-ylsulfonyl)piperazin-2-yl)-6-methyl-1H-indazole], the Ki was found to be 24 nM.
Regarding `Cc1cc2c(cnn2-c2ccc(F)cc2)cc1C1CN(S(=O)(=O)C2CCC2)CCN1CC(C)C` (single isomer, unassigned) [Example 116, 5-(4-(cyclobutylsulfonyl)-1-isobutylpiperazin-2-yl)-1-(4-fluorophenyl)-6-methyl-1H-indazole], the Ki amounted to 25 nM.
With `Cc1cc2c(cnn2-c2ccc(F)cc2)cc1C1CN(S(=O)(=O)c2ccc(C#N)nc2)CCN1CC(C)C` (single isomer, unassigned) [Example 117, 5-((3-(1-(4-fluorophenyl)-6-methyl-1H-indazol-5-yl)-4-isobutylpiperazin-1-yl)sulfonyl)picolinonitrile] the figure was 38 nM; with `Cc1cc2c(cnn2-c2ccc(F)cc2)cc1C1CN(S(=O)(=O)c2cnn(C)n2)CCN1CC1CNC(=O)C1` (single isomer, unassigned) [Example 118, 4-((2-(1-(4-fluorophenyl)-6-methyl-1H-indazol-5-yl)-4-((2-methyl-2H-1,2,3-triazol-4-yl)sulfonyl)piperazin-1-yl)methyl)pyrrolidin-2-one], 190 nM.
